Laboratory results published in the NIST ThermoML archive (doi:10.1016/j.jct.2015.05.024).

Assay: xn = mol fraction of the nth substance listed
Conditions: 100 kPa, Liquid; for speed of sound: Frequency=5 MHz, Pulse-echo method; for mass density: Vibrating tube method

OCCOCCOCCO [triethylene glycol] + O
Conditions | mass density [kg/m3] | speed of sound [m/s]
293.15 K, x1 = 0.0107 | 1010.53 | –
293.15 K, x1 = 0.02047 | 1020.73 | –
293.15 K, x1 = 0.03972 | 1038.14 | –
293.15 K, x1 = 0.04979 | 1045.97 | –
293.15 K, x1 = 0.06996 | 1059.39 | –
293.15 K, x1 = 0.09424 | 1072.14 | –
293.15 K, x1 = 0.1481 | 1091 | –
293.15 K, x1 = 0.1752 | – | 1744.6
293.15 K, x1 = 0.1869 | – | 1743.5
293.15 K, x1 = 0.2006 | 1101.53 | –
293.15 K, x1 = 0.2052 | – | 1740.7
293.15 K, x1 = 0.2239 | – | 1736.8
293.15 K, x1 = 0.2502 | 1107.61 | –
293.15 K, x1 = 0.2513 | – | 1730.1
293.15 K, x1 = 0.2755 | – | 1723.7
293.15 K, x1 = 0.2988 | 1111.51 | –
293.15 K, x1 = 0.3023 | – | 1716.7
293.15 K, x1 = 0.3492 | 1114.3 | –
293.15 K, x1 = 0.3754 | – | 1699
293.15 K, x1 = 0.3925 | 1116.06 | –
293.15 K, x1 = 0.4338 | – | 1686.6
293.15 K, x1 = 0.4502 | 1117.81 | –
293.15 K, x1 = 0.4877 | 1118.7 | –
293.15 K, x1 = 0.5004 | 1118.97 | –
293.15 K, x1 = 0.5151 | – | 1671.3
293.15 K, x1 = 0.5739 | 1120.23 | –
293.15 K, x1 = 0.58 | 1120.32 | –
293.15 K, x1 = 0.6233 | – | 1654.9
293.15 K, x1 = 0.6465 | 1121.14 | –
293.15 K, x1 = 0.651 | 1121.19 | –
293.15 K, x1 = 0.7008 | 1121.67 | –
293.15 K, x1 = 0.7471 | 1122.06 | –
293.15 K, x1 = 0.7677 | 1122.21 | –
293.15 K, x1 = 0.7815 | – | 1641.2
293.15 K, x1 = 0.82 | 1122.57 | –
293.15 K, x1 = 0.8623 | 1122.83 | –
293.15 K, x1 = 0.8792 | 1122.93 | –
293.15 K, x1 = 0.8924 | – | 1634.7
293.15 K, x1 = 0.8975 | 1123.03 | –
293.15 K, x1 = 0.9203 | 1123.15 | –
293.15 K, x1 = 0.9514 | 1123.32 | –
293.15 K, x1 = 0.9634 | – | 1630.2
293.15 K, x1 = 0.9692 | 1123.41 | –
293.15 K, x1 = 1 | 1123.56 | 1629
298.15 K, x1 = 0.000655 | – | 1499.7
298.15 K, x1 = 0.003093 | – | 1510.2
298.15 K, x1 = 0.008719 | – | 1533.1
298.15 K, x1 = 0.0107 | 1009.15 | –
298.15 K, x1 = 0.01513 | – | 1557
298.15 K, x1 = 0.02047 | 1019.12 | –
298.15 K, x1 = 0.02053 | – | 1575.4
298.15 K, x1 = 0.0297 | – | 1603.3
298.15 K, x1 = 0.03817 | – | 1625.7
298.15 K, x1 = 0.03972 | 1036.1 | –
298.15 K, x1 = 0.04526 | – | 1642.1
298.15 K, x1 = 0.04979 | 1043.71 | –
298.15 K, x1 = 0.05106 | – | 1654.1
298.15 K, x1 = 0.05839 | – | 1667.6
298.15 K, x1 = 0.0674 | – | 1681.9
298.15 K, x1 = 0.06996 | 1056.75 | –
298.15 K, x1 = 0.0766 | – | 1694.1
298.15 K, x1 = 0.08268 | – | 1701
298.15 K, x1 = 0.08879 | – | 1707
298.15 K, x1 = 0.09424 | 1069.14 | –
298.15 K, x1 = 0.09568 | – | 1712.9
298.15 K, x1 = 0.1024 | – | 1717.7
298.15 K, x1 = 0.1041 | – | 1718.8
298.15 K, x1 = 0.1099 | – | 1722.2
298.15 K, x1 = 0.1152 | – | 1724.8
298.15 K, x1 = 0.1205 | – | 1727
298.15 K, x1 = 0.127 | – | 1729.3
298.15 K, x1 = 0.1291 | – | 1729.9
298.15 K, x1 = 0.1383 | – | 1731.9
298.15 K, x1 = 0.1474 | – | 1733.1
298.15 K, x1 = 0.1481 | 1087.52 | –
298.15 K, x1 = 0.1587 | – | 1733.7
298.15 K, x1 = 0.1675 | – | 1733.4
298.15 K, x1 = 0.1757 | – | 1732.8
298.15 K, x1 = 0.1834 | – | 1731.9
298.15 K, x1 = 0.2006 | 1097.87 | –
298.15 K, x1 = 0.2026 | – | 1728.7
298.15 K, x1 = 0.221 | – | 1724.7
298.15 K, x1 = 0.2393 | – | 1720.1
298.15 K, x1 = 0.2502 | 1103.88 | –
298.15 K, x1 = 0.2566 | – | 1715.5
298.15 K, x1 = 0.2906 | – | 1706.3
298.15 K, x1 = 0.2988 | 1107.76 | –
298.15 K, x1 = 0.3492 | 1110.52 | –
298.15 K, x1 = 0.3533 | – | 1690.5
298.15 K, x1 = 0.3925 | 1112.26 | –
298.15 K, x1 = 0.427 | – | 1674.4
298.15 K, x1 = 0.4502 | 1113.99 | –
298.15 K, x1 = 0.4877 | 1114.87 | –
298.15 K, x1 = 0.5004 | 1115.13 | –
298.15 K, x1 = 0.5126 | – | 1658.3
298.15 K, x1 = 0.5739 | 1116.38 | –
298.15 K, x1 = 0.58 | 1116.47 | –
298.15 K, x1 = 0.5907 | – | 1645.7
298.15 K, x1 = 0.6465 | 1117.3 | –
298.15 K, x1 = 0.651 | 1117.35 | –
298.15 K, x1 = 0.7008 | 1117.83 | –
298.15 K, x1 = 0.7471 | 1118.22 | –
298.15 K, x1 = 0.7663 | – | 1627.2
298.15 K, x1 = 0.7677 | 1118.37 | –
298.15 K, x1 = 0.82 | 1118.72 | –
298.15 K, x1 = 0.8623 | 1118.97 | –
298.15 K, x1 = 0.8792 | 1119.06 | –
298.15 K, x1 = 0.8917 | – | 1620
298.15 K, x1 = 0.8975 | 1119.16 | –
298.15 K, x1 = 0.9203 | 1119.28 | –
298.15 K, x1 = 0.9514 | 1119.44 | –
298.15 K, x1 = 0.9628 | – | 1615.6
298.15 K, x1 = 0.9692 | 1119.53 | –
298.15 K, x1 = 1 | 1119.69 | 1613.5
303.15 K, x1 = 0.001004 | – | 1513.5
303.15 K, x1 = 0.002763 | – | 1520.4
303.15 K, x1 = 0.007937 | – | 1539.9
303.15 K, x1 = 0.0107 | 1007.53 | –
303.15 K, x1 = 0.01123 | – | 1551.5
303.15 K, x1 = 0.01908 | – | 1577
303.15 K, x1 = 0.02047 | 1017.29 | –
303.15 K, x1 = 0.0244 | – | 1592.6
303.15 K, x1 = 0.03263 | – | 1614.3
303.15 K, x1 = 0.03972 | 1033.87 | –
303.15 K, x1 = 0.0428 | – | 1637.2
303.15 K, x1 = 0.05068 | – | 1652.5
303.15 K, x1 = 0.05793 | – | 1664.7
303.15 K, x1 = 0.06625 | – | 1676.8
303.15 K, x1 = 0.07426 | – | 1686.6
303.15 K, x1 = 0.08178 | – | 1694.5
303.15 K, x1 = 0.08886 | – | 1700.8
303.15 K, x1 = 0.0936 | – | 1704.5
303.15 K, x1 = 0.09852 | – | 1707.8
303.15 K, x1 = 0.102 | – | 1709.9
303.15 K, x1 = 0.1059 | – | 1712.1
303.15 K, x1 = 0.1101 | – | 1714.1
303.15 K, x1 = 0.1102 | – | 1714.2
303.15 K, x1 = 0.1147 | – | 1716
303.15 K, x1 = 0.1193 | – | 1717.7
303.15 K, x1 = 0.1248 | – | 1719.3
303.15 K, x1 = 0.1295 | – | 1720.5
303.15 K, x1 = 0.1308 | – | 1720.7
303.15 K, x1 = 0.1337 | – | 1721.3
303.15 K, x1 = 0.1393 | – | 1722.1
303.15 K, x1 = 0.1423 | – | 1722.4
303.15 K, x1 = 0.1457 | – | 1722.6
303.15 K, x1 = 0.1695 | – | 1722.1
303.15 K, x1 = 0.1857 | – | 1719.9
303.15 K, x1 = 0.2042 | – | 1716.3
303.15 K, x1 = 0.2252 | – | 1711.2
303.15 K, x1 = 0.2499 | – | 1704.6
303.15 K, x1 = 0.3027 | – | 1690
303.15 K, x1 = 0.3394 | – | 1680.6
303.15 K, x1 = 0.4052 | – | 1665.7
303.15 K, x1 = 0.4916 | – | 1649
303.15 K, x1 = 0.6074 | – | 1630
303.15 K, x1 = 0.7552 | – | 1614
303.15 K, x1 = 0.8683 | – | 1607.4
303.15 K, x1 = 0.9616 | – | 1601.7
303.15 K, x1 = 1 | – | 1599.1
